Data on 19 molecules can be found in ChEMBL document CHEMBL1143641, “Structure-based design of 7-carbamate analogs of geldanamycin” (Bioorg Med Chem Lett, 2005).

One test deals with SK-BR-3. Description: Cytotoxicity against SKBr3 cells. The test is classed as functional, cell-based. As to conditions: Homo sapiens.
The target of test [1] is Heat shock protein HSP 90-alpha (Homo sapiens, UniProt P07900). The test is described as follows: Binding affinity for human heat shock protein 90 in scintillation proximity assay. A general note: SPA uses beads or plates that emit light when radiolabelled molecules are held near them.

One may read the IC50 as the point on the concentration scale where inhibition reaches its midpoint. Lower therefore signals greater potency in that assay. As usually defined, the Kd is the concentration at which binding is half-saturated. As to `CO[C@H]1C[C@H](C)CC2=C(NCCN(C)C)C(=O)C=C(NC(=O)/C(C)=C/C=C3/NC(=O)O[C@@H](/C(C)=C/[C@H](C)[C@H]1O)[C@H]3OC)C2=O`, in the test on SK-BR-3, the midpoint of inhibition, the IC50, lay at 4.5 µM. The molecule also showed a dissociation constant (Kd) in test [1] greater than 100 µM.

On to `CO[C@H]1/C=C\C=C(/C)C(=O)NC2=CC(=O)C(NCCN(C)C)=C(C[C@@H](C)C[C@H](OC)[C@H](O)[C@@H](C)/C=C(\C)[C@@H]1OC(=O)NCC(N)=O)C2=O`, for which the half-inhibitory concentration (IC50) in the test with SK-BR-3 worked out at 1.4 µM. The molecule also showed a Kd in test [1] greater than 100 µM.

The molecule `CO[C@H]1/C=C\C=C(/C)C(=O)NC2=CC(=O)C(N3CCC3)=C(C[C@@H](C)C[C@H](OC)[C@H](O)[C@@H](C)/C=C(\C)[C@@H]1OC(=O)NN)C2=O` showed an IC50 in the test with SK-BR-3 of 0.53 µM. Moreover, the equilibrium dissociation constant (Kd) in test [1] is greater than 100 µM.

In the test on SK-BR-3, `CNC(=O)O[C@H]1/C(C)=C/[C@H](C)[C@@H](O)[C@@H](OC)C[C@H](C)CC2=C(NCCN(C)C)C(=O)C=C(NC(=O)/C(C)=C/C=C\[C@@H]1OC)C2=O` returned an IC50 of 0.42 µM. In test [1], this molecule came in with a Kd greater than 100 µM.

`CONC(=O)O[C@H]1/C(C)=C/[C@H](C)[C@@H](O)[C@@H](OC)C[C@H](C)CC2=C(NCCN(C)C)C(=O)C=C(NC(=O)/C(C)=C/C=C\[C@@H]1OC)C2=O` returned a half-maximal inhibitory concentration (IC50) in the test with SK-BR-3 of 0.49 µM. This molecule returned an equilibrium dissociation constant (Kd) in test [1] greater than 100 µM.

`CO[C@H]1/C=C\C=C(/C)C(=O)NC2=CC(=O)C(NCCN(C)C)=C(C[C@@H](C)C[C@H](OC)[C@H](O)[C@@H](C)/C=C(\C)[C@@H]1OC(=O)NCCN(C)C)C2=O`: the IC50 with SK-BR-3 amounted to 0.46 µM. The same molecule displayed a Kd in test [1] greater than 100 µM.

Molecule `CO[C@H]1/C=C\C=C(/C)C(=O)NC2=CC(=O)C(N)=C(C[C@@H](C)C[C@H](OC)[C@H](O)[C@@H](C)/C=C(\C)[C@@H]1OC(N)=O)C2=O` came in with an equilibrium dissociation constant (Kd) in test [1] of 0.1 µM.

Molecule `CO[C@H]1/C=C\C=C(/C)C(=O)NC2=CC(=O)C(NCCN(C)C)=C(C[C@@H](C)C[C@H](OC)[C@H](O)[C@@H](C)/C=C(\C)[C@@H]1OC(=O)N(C)N)C2=O` came in with an IC50 in the test with SK-BR-3 of 2.5 µM. Moreover, the equilibrium dissociation constant (Kd) in test [1] is greater than 100 µM.

Molecule `CO[C@H]1/C=C\C=C(/C)C(=O)NC2=CC(=O)C(NCCN(C)C)=C(C[C@@H](C)C[C@H](OC)[C@H](O)[C@@H](C)/C=C(\C)[C@@H]1OC(=O)NO)C2=O` came in with an IC50 with SK-BR-3 of 0.22 µM. Besides, in test [1], binding was characterised by a dissociation constant (Kd) of 18 µM.

Molecule `CO[C@H]1/C=C\C=C(/C)C(=O)NC2=CC(=O)C(N3CCC3)=C(C[C@@H](C)C[C@H](OC)[C@H](O)[C@@H](C)/C=C(\C)[C@@H]1OC(=O)NO)C2=O` returned an IC50 in the test with SK-BR-3 of 0.64 µM. The molecule also showed a dissociation constant Kd in test [1] greater than 100 µM.

`CO[C@H]1/C=C\C=C(/C)C(=O)NC2=CC(=O)C(NCCF)=C(C[C@@H](C)C[C@H](OC)[C@H](O)[C@@H](C)/C=C(\C)[C@@H]1OC(=O)NN)C2=O` came in with an IC50 with SK-BR-3 of 2.1 µM. For the same molecule, the Kd in test [1] is greater than 100 µM.

Consider `CO[C@H]1/C=C\C=C(/C)C(=O)NC2=CC(=O)C(NCCF)=C(C[C@@H](C)C[C@H](OC)[C@H](O)[C@@H](C)/C=C(\C)[C@@H]1OC(=O)NO)C2=O`, for which the half-maximal inhibitory concentration (IC50) in the test on SK-BR-3 amounted to 1.5 µM. This molecule showed a Kd in test [1] greater than 100 µM.

For the molecule `CO[C@H]1/C=C\C=C(/C)C(=O)NC2=CC(=O)C(N)=C(C[C@@H](C)C[C@H](OC)[C@H](O)[C@@H](C)/C=C(\C)[C@@H]1OC(=O)c1ccc[nH]1)C2=O`, the half-maximal inhibitory concentration (IC50) with SK-BR-3 is 1.9 µM. Further, in test [1], the Kd was greater than 100 µM.

Take `CO[C@H]1/C=C\C=C(/C)C(=O)NC2=CC(=O)C(NCCN(C)C)=C(C[C@@H](C)C[C@H](OC)[C@H](O)[C@@H](C)/C=C(\C)[C@@H]1OC(=O)c1c[nH]cn1)C2=O`: the IC50 in the test on SK-BR-3 came to 1.2 µM. The same molecule gave an equilibrium dissociation constant (Kd) in test [1] greater than 100 µM.

For `CO[C@H]1/C=C\C=C(/C)C(=O)NC2=CC(=O)C(NCCN(C)C)=C(C[C@@H](C)C[C@H](OC)[C@H](O)[C@@H](C)/C=C(\C)[C@@H]1OC(=O)NN)C2=O`, in the test with SK-BR-3, the half-inhibitory concentration (IC50) was determined as 0.14 µM. In test [1], this molecule showed a Kd greater than 100 µM.

`CO[C@H]1/C=C\C=C(/C)C(=O)NC2=CC(=O)C(NCCN(C)C)=C(C[C@@H](C)C[C@H](OC)[C@H](O)[C@@H](C)/C=C(\C)[C@@H]1OC(=O)NCCO)C2=O`: the half-maximal inhibitory concentration (IC50) with SK-BR-3 stood at 0.39 µM. The same molecule had a Kd in test [1] greater than 100 µM.

Regarding `CO[C@H]1/C=C\C=C(/C)C(=O)NC2=CC(=O)C(NCCN(C)C)=C(C[C@@H](C)C[C@H](OC)[C@H](O)[C@@H](C)/C=C(\C)[C@@H]1OC(=O)c1ccc[nH]1)C2=O`, the IC50 with SK-BR-3 was 0.41 µM. The molecule also showed a Kd in test [1] greater than 100 µM.

In test [1], `CO[C@H]1/C=C\C=C(/C)C(=O)NC2=CC(=O)C(NCCF)=C(C[C@@H](C)C[C@H](OC)[C@H](O)[C@@H](C)/C=C(\C)[C@@H]1OC(N)=O)C2=O` gave a dissociation constant Kd of 0.8 µM.

Take `CO[C@H]1/C=C\C=C(/C)C(=O)NC2=CC(=O)C(N3CCC3)=C(C[C@@H](C)C[C@H](OC)[C@H](O)[C@@H](C)/C=C(\C)[C@@H]1OC(N)=O)C2=O`: in test [1], binding was put at a Kd of 1.4 µM.
